Earlier results as cited in US20250090612A1, “FEED ADDITIVE COMPOSITIONS AND METHODS OF USE” (PMI Nutrition, LLC, priority 2021, published 2025).

System: C. elegans
Details: C. elegans assay

## urolithins
  concentration needed to obtain a positive effect on muscle function: 50 µM
  concentration required to trigger the muscle function response: 11.4 µg/mL
